According to the NIST ThermoML archive (doi:10.1007/s10765-013-1492-1):
Values joined by “and” are separate entries in the source; they are usually repeats but may differ in a detail not shown here. Equal entries are not always repeated. ± gives the expanded uncertainty stated by the source.

How the values were obtained:
[1] = 101 kPa, Liquid
[2] = xn = mol fraction of the nth substance listed; conditions: 101 kPa, Liquid

O=Cc1ccccc1 [benzaldehyde]
[1]
Conditions	mass density	speed of sound	viscosity
303.15 K	1031.7 ± 4.8 kg/m3 and 1035.7 ± 4.8 kg/m3	1452 ± 16 m/s	1.32 ± 0.082 mPa·s
308.15 K	1031.3 ± 4.9 kg/m3	1428 ± 16 m/s and 1428.8 ± 16 m/s	1.249 ± 0.078 mPa·s and 1.249 ± 0.059 mPa·s
313.15 K	1028 ± 4.9 kg/m3	1413 ± 15 m/s	1.242 ± 0.078 mPa·s and 1.241 ± 0.059 mPa·s

O=Cc1ccccc1 [benzaldehyde] + Clc1ccccc1
[2]
Conditions	mass density, 303.15 K [kg/m3]	mass density, 308.15 K [kg/m3]	mass density, 313.15 K [kg/m3]	speed of sound, 303.15 K [m/s]	speed of sound, 308.15 K [m/s]	speed of sound, 313.15 K [m/s]	viscosity, 303.15 K [mPa·s]	viscosity, 308.15 K [mPa·s]	viscosity, 313.15 K [mPa·s]
x1 = 0.1006	1084.3 ± 5	1082 ± 5.1	1077.9 ± 5.1	1265 ± 14	1241 ± 14	1235 ± 14	0.7984 ± 0.053	0.7805 ± 0.052	0.7641 ± 0.051
x1 = 0.2011	1081.4 ± 5	1079.1 ± 5	1075 ± 5.1	1282 ± 14	1258 ± 14	1249 ± 14	0.8332 ± 0.055	0.8123 ± 0.054	0.7949 ± 0.053
x1 = 0.3015	1077.2 ± 4.9	1075 ± 5	1070.2 ± 5.1	1299 ± 15	1277 ± 14	1267 ± 14	0.8814 ± 0.058	0.8532 ± 0.056	0.8407 ± 0.056
x1 = 0.4017	1071.9 ± 4.9	1070.3 ± 5	1065.2 ± 5.1	1318 ± 15	1296 ± 15	1286 ± 14	0.9297 ± 0.06	0.905 ± 0.059	0.8891 ± 0.058
x1 = 0.5017	1066.5 ± 4.9	1065.2 ± 5	1059.9 ± 5.1	1337 ± 15	1316 ± 15	1305 ± 15	0.9803 ± 0.063	0.9559 ± 0.062	0.9425 ± 0.061
x1 = 0.6017	1060.9 ± 4.9	1059.8 ± 5	1054.6 ± 5.1	1356 ± 15	1337 ± 15	1325 ± 15	1.029 ± 0.066	1.009 ± 0.065	0.9925 ± 0.064
x1 = 0.7015	1055 ± 4.8	1053.8 ± 4.9	1049.1 ± 5	1376 ± 15	1358 ± 15	1345 ± 15	1.082 ± 0.069	1.061 ± 0.068	1.045 ± 0.067
x1 = 0.8011	1048.5 ± 4.8	1047.5 ± 4.9	1043.3 ± 5	1397 ± 15	1380 ± 15	1366 ± 15	1.134 ± 0.072	1.118 ± 0.071	1.099 ± 0.07
x1 = 0.9006	1041.6 ± 4.8	1040.8 ± 4.9	1036.9 ± 5	1418 ± 15	1403 ± 15	1387 ± 15	1.196 ± 0.076	1.184 ± 0.075	1.163 ± 0.074
x1 = 1	1031.7 ± 4.8	1031.3 ± 4.9	1028 ± 4.9	1452 ± 16	1428 ± 16	1413 ± 15	1.32 ± 0.082	1.249 ± 0.078	1.242 ± 0.078

O=Cc1ccccc1 [benzaldehyde] + O=[N+]([O-])c1ccccc1
[2]
Conditions	mass density, 303.15 K [kg/m3]	mass density, 308.15 K [kg/m3]	mass density, 313.15 K [kg/m3]	speed of sound, 303.15 K [m/s]	speed of sound, 308.15 K [m/s]	speed of sound, 313.15 K [m/s]	viscosity, 303.15 K [mPa·s]	viscosity, 308.15 K [mPa·s]	viscosity, 313.15 K [mPa·s]
x1 = 0.1018	1170.8 ± 5.3	1170.6 ± 5.4	1166.6 ± 5.5	1409.5 ± 15	1366.2 ± 15	1332.4 ± 15	1.556 ± 0.072	1.546 ± 0.072	1.524 ± 0.071
x1 = 0.2032	1160.2 ± 5.3	1159.9 ± 5.4	1150.6 ± 5.4	1412 ± 15	1372 ± 15	1340 ± 15	1.534 ± 0.072	1.504 ± 0.07	1.472 ± 0.069
x1 = 0.3043	1143 ± 5.2	1142.6 ± 5.3	1142.4 ± 5.4	1414.6 ± 15	1378 ± 15	1348 ± 15	1.495 ± 0.07	1.456 ± 0.068	1.45 ± 0.068
x1 = 0.4049	1130.6 ± 5.2	1129.8 ± 5.3	1121.9 ± 5.3	1417.5 ± 16	1384 ± 15	1356.2 ± 15	1.455 ± 0.068	1.429 ± 0.067	1.402 ± 0.066
x1 = 0.5051	1117.6 ± 5.1	1117 ± 5.2	1110.9 ± 5.3	1420.6 ± 16	1390.6 ± 15	1364.8 ± 15	1.427 ± 0.067	1.411 ± 0.066	1.383 ± 0.065
x1 = 0.6049	1102.6 ± 5	1101.8 ± 5.1	1101.1 ± 5.2	1424.5 ± 16	1397.8 ± 15	1374 ± 15	1.405 ± 0.066	1.389 ± 0.065	1.371 ± 0.065
x1 = 0.7042	1083.9 ± 5	1082.7 ± 5.1	1080.7 ± 5.2	1428.3 ± 16	1405 ± 15	1383 ± 15	1.359 ± 0.064	1.354 ± 0.064	1.343 ± 0.063
x1 = 0.8032	1065.2 ± 4.9	1065 ± 5	1064.5 ± 5.1	1432.5 ± 16	1412.5 ± 15	1392.3 ± 15	1.333 ± 0.063	1.316 ± 0.062	1.307 ± 0.062
x1 = 0.9018	1050.9 ± 4.8	1048.8 ± 4.9	1043.8 ± 5	1437 ± 16	1420 ± 15	1401.7 ± 15	1.295 ± 0.061	1.282 ± 0.061	1.267 ± 0.06
x1 = 1	1035.7 ± 4.8	1031.3 ± 4.9	1028 ± 4.9	1452 ± 16	1428.8 ± 16	1413 ± 15	1.32 ± 0.062	1.249 ± 0.059	1.241 ± 0.059

Clc1ccccc1 [chlorobenzene]
[1]
Conditions	mass density [kg/m3]	speed of sound [m/s]	viscosity [mPa·s]
303.15 K	1086.6 ± 5	1249 ± 14	0.7147 ± 0.048
308.15 K	1085.1 ± 5.1	1224 ± 14	0.7469 ± 0.05
313.15 K	1081.1 ± 5.2	1220 ± 14	0.7383 ± 0.05

Clc1ccccc1 [chlorobenzene] + O=Cc1ccccc1
[2], x2 = 0
Conditions	mass density [kg/m3]	speed of sound [m/s]	viscosity [mPa·s]
303.15 K	1086.6 ± 5	1249 ± 14	0.7147 ± 0.048
308.15 K	1085.1 ± 5.1	1224 ± 14	0.7469 ± 0.05
313.15 K	1081.1 ± 5.2	1220 ± 14	0.7383 ± 0.05

O=[N+]([O-])c1ccccc1 [nitrobenzene]
[1]
Conditions	mass density [kg/m3]	speed of sound [m/s]	viscosity [mPa·s]
303.15 K	1189.6 ± 5.4	1407 ± 15	1.618 ± 0.075
308.15 K	1189.4 ± 5.5	1361 ± 15	1.618 ± 0.075
313.15 K	1187.2 ± 5.6	1326 ± 15	1.61 ± 0.075

O=[N+]([O-])c1ccccc1 [nitrobenzene] + O=Cc1ccccc1
[2], x2 = 0
Conditions	mass density [kg/m3]	speed of sound [m/s]	viscosity [mPa·s]
303.15 K	1189.6 ± 5.4	1407 ± 15	1.618 ± 0.075
308.15 K	1189.4 ± 5.5	1361 ± 15	1.618 ± 0.075
313.15 K	1187.2 ± 5.6	1326 ± 15	1.61 ± 0.075
